Measured values taken from patent publication US7829560B2, “1,4-disubstituted naphthalenes as inhibitors of P38 MAP kinase” (Arqule, Inc., priority 2004, dated 2010).
pIC50: −log10 of the molar value.

Key:
[1] = test system: TNFα release from THP-1 cells; test: Inhibition of TNFα release from LPS-stimulated THP-1 cells, ELISA; type: cell-based; settings: Homo sapiens, THP-1, THP-1 cells, read-out: [CELL] THP-1, IC50, TNF ALPHA, ELISA
Outline: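 TNFα released into supernatant after 18 h of 10 μg/ml LPS stimulation was quantified by ELISA and IC50 taken as 50% reduction by non-linear regression. THP-1 cells (10^6/ml; medium with 10% FBS, serum-free or 1% HSA) saw compound for 30 min at 37 °C beforehand; final DMSO ≤0.5%.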

[2] = target: T1, p38α (Homo sapiens, UniProt Q16539); test: p38 MAP Kinase assay: inhibition of ATF2 phosphorylation, ELISA; type: biochemical; settings: for pIC50: ATF2 phosphorylation, read-out: [ENZ] P38 ALPHA, IC50, ELISA; for inhibition at 10 µM: substrate ATF2, read-out: [ENZ] P38 ALPHA, PCT INH, ELISA (10 uM;ATF2) (Percent)
T1 construct: p38 MAP Kinases are recombinant human full-length proteins with an amino-terminal GST fusion; GST (N); purchased Upstate Biotechnology Inc; host or cells: E. coli
T1 sequence (Q16539 whole entry, the tested form may be a part): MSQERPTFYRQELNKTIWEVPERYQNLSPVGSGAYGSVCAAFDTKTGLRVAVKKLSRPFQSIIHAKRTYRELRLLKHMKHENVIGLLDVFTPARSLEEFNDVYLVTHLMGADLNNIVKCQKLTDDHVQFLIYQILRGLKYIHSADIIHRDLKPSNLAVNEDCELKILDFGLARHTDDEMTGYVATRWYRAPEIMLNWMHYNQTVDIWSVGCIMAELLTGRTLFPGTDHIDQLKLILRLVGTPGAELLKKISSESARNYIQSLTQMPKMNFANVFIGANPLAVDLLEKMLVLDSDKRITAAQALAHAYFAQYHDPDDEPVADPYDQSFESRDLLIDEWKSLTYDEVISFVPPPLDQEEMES
Outline: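 In vitro phosphorylation of ATF2 at Thr69 by recombinant human GST-p38 MAP kinase, read by anti-phospho-ATF2 ELISA at 450 nm. Enzyme and compound pre-incubated 15 min at RT, then 30 min reaction at 37 °C with 40 μM ATP and 1.25 μM ATF2; buffer with or without 1% HSA (Method II or I).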

Row | Structure (SMILES) | pIC50 [1] | melting point [°C] | pIC50 [2] | inhibition at 10 µM [2] [%]
1 | CN1CCN(c2nccc(Oc3ccc(NC(=O)c4cc(F)cc(N5CCCCC5)c4)c4ccccc34)n2)CC1 [Compound B372, 3-Fluoro-N-(4-{[2-(4-methylpiperazin-1-yl)pyrimidin-4-yl]oxy}-1-naphthyl)-5-piperidin-1-ylbenzamide] | 6.66 | 182 to 184 | 8.08 | –
2 | O=C(Nc1ccc(Oc2ccnc(NCCN3CCCCC3)n2)c2ccccc12)c1cc(F)cc(N2CCOCC2)c1 [Compound B343, 3-Fluoro-5-morpholin-4-yl-N-[4-({2-[(2-piperidin-1-ylethyl)amino]pyrimidin-4-yl}oxy)-1-naphthyl]benzamide] | 6.87 | 98 to 100 | 7.82 | –
3 | CC1CC(C)CN(c2nccc(Oc3ccc(NC(=O)c4cc(F)cc(N5CCOCC5)c4)c4ccccc34)n2)C1 (centres unmarked) [Compound B348, N-(4-{[2-(3,5-Dimethylpiperidin-1-yl)pyrimidin-4-yl]oxy}-1-naphthyl)-3-fluoro-5-morpholin-4-ylbenzamide] | < 6.00 | 102 to 104 | 6.78 | –
4 | CSc1nccc(Oc2ccc(NC(=O)c3cccc(OC(C)(C)C)c3)c3ccccc23)n1 [Compound B306, 3-tert-Butoxy-N-[4-(2-methylsulfanyl-pyrimidin-4-yloxy)-naphthalen-1-yl]-benzamide] | 6.82 | 135 to 136 | 7.13 | –
5 | O=C(Nc1ccc(OCc2ccncc2)c2ccccc12)c1cc(F)cc(N2CCCCC2)c1 [Compound B230, 3-Fluoro-5-piperidin-1-yl-N-[4-(pyridin-4-ylmethoxy)-1-naphthyl]benzamide] | 6.20 | 69 to 71 | 7.59 | –
6 | CSc1nccc(Oc2ccc(NC(=O)c3cc(F)cc(N4CCCC4)c3)c3ccccc23)n1 [Compound B264, 3-Fluoro-N-(4-{[2-(methylthio)pyrimidin-4-yl]oxy}-1-naphthyl)-5-pyrrolidin-1-ylbenzamide] | 6.75 | 180 to 181 | 6.72 | –
7 | CN1CCC(Nc2nccc(Oc3ccc(NC(=O)c4cc(F)cc(N5CCOCC5)c4)c4ccccc34)n2)CC1 [Compound B362, 3-Fluoro-N-[4-({2-[(1-methylpiperidin-4-yl)amino]pyrimidin-4-yl}oxy)-1-naphthyl]-5-morpholin-4-ylbenzamide] | 7.31 | 128 to 129 | 8.11 | –
8 | CC(C)(C)OC(=O)N1CCN(c2nccc(Oc3ccc(NC(=O)c4cc(F)cc(N5CCCCC5)c4)c4ccccc34)n2)CC1 [Compound B397, tert-Butyl-4-[4-({4-[(3-fluoro-5-piperidin-1-ylbenzoyl)amino]-1-naphthyl}oxy)pyrimidin-2-yl]piperazine-1-carboxylate] | < 6.00 | 175 to 177 | 6.96 | –
9 | O=C(Nc1ccc(OCCN2CCOCC2)c2ccccc12)c1cc(N2CCOCC2)ncn1 [Compound B54, 6-Morpholin-4-yl-pyrimidine-4-carboxylic acid [4-(2-morpholin-4-yl-ethoxy)-naphthalen-1-yl]-amide] | < 5.00 | 50 to 51 | < 5.00 | –
10 | O=C(Nc1ccc(OCCN2CCOCC2)c2ccccc12)c1cccc(N2CCOCC2)c1 [Compound B169, 3-Morpholin-4-yl-N-[4-(2-morpholin-4-yl-ethoxy)-naphthalen-1-yl]-benzamide] | 5.88 | 90 to 92 | 5.68 | 77.5
11 | O=C(Nc1ccc(Oc2ccnc(N3CCC3)n2)c2ccccc12)c1cc(F)cc(N2CCOCC2)c1 [Compound B363, N-{4-[(2-azetidin-1-ylpyrimidin-4-yl)oxy]-1-naphthyl}-3-fluoro-5-morpholin-4-ylbenzamide] | 7.11 | 196 to 197 | 8.24 | –
12 | O=C(Nc1ccc(Oc2ccnc(NCCN3CCCCC3)n2)c2ccccc12)c1cc(F)cc(N2CCCCC2)c1 [Compound B390, 3-Fluoro-5-piperidin-1-yl-N-[4-({2-[(2-piperidin-1-ylethyl)amino]pyrimidin-4-yl}oxy)-1-naphthyl]benzamide] | 6.94 | 88 to 89 | 8.52 | –
13 | CC1=NC(C)(COc2ccc(NC(=O)c3cc(F)cc(N4CCOCC4)c3)c3ccccc23)CO1 (centres unmarked) [Compound B232, N-{4-[(2,4-Dimethyl-4,5-dihydro-1,3-oxazol-4-yl)methoxy]-1-naphthyl}-3-fluoro-5-morpholin-4-ylbenzamide] | 5.37 | 203 to 206 | 5.10 | –
14 | O=C(Nc1ccc(OCCCN2CCOCC2)c2ccccc12)c1cc(F)cc(N2CCCCC2)c1 [Compound B161, 3-Fluoro-N-[4-(3-morpholin-4-yl-propoxy)-naphthalen-1-yl]-5-piperidin-1-yl-benzamide] | < 5.00 | 70 to 72 | 5.96 | 84
15 | CN(Cc1ccco1)c1nccc(Oc2ccc(NC(=O)c3cc(F)cc(N4CCCCC4)c3)c3ccccc23)n1 [Compound B418, 3-Fluoro-N-[4-({2-[(2-furylmethyl)(methyl)amino]pyrimidin-4-yl}oxy)-1-naphthyl]-5-piperidin-1-ylbenzamide] | 6.27 | 155 to 156 | 6.99 | –
16 | Cc1ncsc1CCOc1ccc(NC(=O)c2cc(F)cc(N3CCOCC3)c2)c2ccccc12 [Compound B231, 3-Fluoro-N-{4-[2-(4-methyl-1,3-thiazol-5-yl)ethoxy]-1-naphthyl}-5-morpholin-4-ylbenzamide] | 6.71 | 186 to 187 | 7.56 | –
17 | O=C(Nc1ccc(Oc2ccnc(N3CCC4(CC3)OCCO4)n2)c2ccccc12)c1cc(F)cc(N2CCCCC2)c1 [Compound B378, N-(4-{[2-(1,4-Dioxa-8-azaspiro[4.5]dec-8-yl)pyrimidin-4-yl]oxy}-1-naphthyl)-3-fluoro-5-piperidin-1-ylbenzamide] | 6.65 | 195 to 196 | 7.77 | –
18 | COCCN(C)c1nccc(Oc2ccc(NC(=O)c3cc(F)cc(N4CCOCC4)c3)c3ccccc23)n1 [Compound B370, 3-Fluoro-N-[4-({2-[(2-methoxyethyl)(methyl)amino]pyrimidin-4-yl}oxy)-1-naphthyl]-5-morpholin-4-ylbenzamide] | 6.48 | 96 to 98 | 7.68 | –
19 | COc1nccc(Oc2ccc(NC(=O)c3cc(F)cc(N4CCOCC4)c3)c3ccccc23)n1 [Compound B267, 3-Fluoro-N-{4-[(2-methoxypyrimidin-4-yl)oxy]-1-naphthyl}-5-morpholin-4-ylbenzamide] | 7.53 | 216 to 217 | 7.24 | –
20 | COCC(C)Nc1nccc(Oc2ccc(NC(=O)c3cc(F)cc(N4CCCCC4)c3)c3ccccc23)n1 (centres unmarked) [Compound B392, 3-Fluoro-N-[4-({2-[(2-methoxy-1-methylethyl)amino]pyrimidin-4-yl}oxy)-1-naphthyl]-5-piperidin-1-ylbenzamide] | 6.91 | 94 to 95 | 8.15 | –
21 | CC(C)CN(C)c1cc(F)cc(C(=O)Nc2ccc(OCCN3CCOCC3)c3ccccc23)c1 [Compound B210, 3-Fluoro-5-[isobutyl(methyl)amino]-N-[4-(2-morpholin-4-ylethoxy)-1-naphthyl]benzamide] | < 5.00 | 126 to 128 | 5.89 | –
22 | CSc1nccc(Oc2ccc(NC(=O)c3cc(F)cc(N4CCOCC4)c3)c3ccccc23)n1 [Compound B246, 3-Fluoro-N-(4-{[2-(methylthio)pyrimidin-4-yl]oxy}-1-naphthyl)-5-morpholin-4-ylbenzamide] | 7.16 | 189 to 190 | 7.40 | –
23 | O=C1CN(c2nccc(Oc3ccc(NC(=O)c4cc(F)cc(N5CCCCC5)c4)c4ccccc34)n2)CCN1 [Compound B421, 3-Fluoro-N-(4-{[2-(3-oxopiperazin-1-yl)pyrimidin-4-yl]oxy}-1-naphthyl)-5-piperidin-1-ylbenzamide] | 6.16 | 140 to 142 | 7.75 | –
24 | O=C(Nc1ccc(OCCCc2cccnc2)c2ccccc12)c1cc(F)cc(N2CCOCC2)c1 [Compound B222, 3-Fluoro-5-morpholin-4-yl-N-[4-(3-pyridin-3-ylpropoxy)-1-naphthyl]benzamide] | 5.03 | 64 to 66 | 6.09 | –
25 | CCOC(=O)N1CCC(Nc2nccc(Oc3ccc(NC(=O)c4cc(F)cc(N5CCOCC5)c4)c4ccccc34)n2)CC1 [Compound B341, Ethyl-4-{[4-({4-[(3-fluoro-5-morpholin-4-ylbenzoyl)amino]-1-naphthyl}oxy)pyrimidin-2-yl]amino}piperidine-1-carboxylate] | 6.23 | 122 to 124 | 7.98 | –
26 | Cc1ncsc1CCOc1ccc(NC(=O)c2cc(F)cc(N3CCCCC3)c2)c2ccccc12 [Compound B424, 3-Fluoro-N-{4-[2-(4-methyl-1,3-thiazol-5-yl)ethoxy]-1-naphthyl}-5-piperidin-1-ylbenzamide] | 5.66 | 221 to 222 | 7.40 | –
